Where two headings read alike, the source gives them in different places.
Columns and labels:
E. coli TP = target: T1, E. coli TP (Escherichia coli, UniProt P07650); test: Enzyme activity assay with recombinant E. coli TP (positive control); assay type: biochemical; details: 0.025 U TP, 200 μM substrate
T1 construct: purchased Sigma
Procedure: The TP activity of M. hyorhinis and the conversion of dThd, FdUrd, 5′DFUR and TFT to thymine, 5FU, 5FU or TF-thymine respectively were measured by high-pressure liquid chromatography (HPLC) analysis. MCF-7 and MCF-7/HYOR cells were seeded at a density of 20,000 cells/cm^2 in DMEM with 10% FBS. Four days later, the medium was collected and cleared by centrifugation at 1,400 rpm. For some experiments, the medium of MCF-7/HYOR cells was filtered using a 0.1 μm micro filter (Acrodisc syringe filter, PALL Corporation, East Hills, N.Y.) to remove the mycoplasmas from the medium. 600 μl of the medium was incubated with 200 μM of substrate (dThd, 5′DFUR, TFT or FdUrd) at 37° C. in the presence or absence of 10 μM TPi. At different time points (i.e. 0, 15, 30, 60, 120 minutes and 16 hours), 100 μl aliquots were withdrawn, transferred to Eppendorf tubes and heated at 95° C. for 3 min. Next, the samples were rapidly cooled on ice, exposed for 20 min to 200 μl ice-cold methanol and cleared by centrifugation at 15,000 rpm for 15 minutes. As a positive control, an enzyme activity assay with E. coli TP (Sigma) was performed. For this reaction, 0.025 U of TP were incubated with 200 μM of substrate in TP-buffer (10 mM Tris-HCl, pH 7.6, 1 mM EDTA, 2 mM potassium phosphate and 150 mM NaCl) in a total volume of 600 μl. Aliquots of 100 μl were withdrawn from the reaction mixture at several time points and treated as described above. The nucleosides were separated from their nucleobases on a reversed-phase RP-8 column (Merck, Darmstadt, Germany) and quantified by HPLC analysis (Aliance 2690, Waters, Milford, Mass.). The separation was performed by a linear gradient from 100% buffer B (50 mM NaH2PO4 and 5 mM heptane sulfonic acid, pH 3.2), to 20% buffer B and 80% acetonitrile. Retention times of thymine and thymidine were respectively 5.1 and 10.8 minutes. UV-based detection of all nucleosides was performed at 267 nm.

MCF-7/HYOR cells [1] = test: Tumor cell proliferation assay, M. hyorhinis-infected MCF-7 cells; assay type: cell-based, human; details: for Ratio (1)/(2) MCF-7/HYOR: IC50 in the absence of TPi to IC50 in the presence of TPi
Procedure: Mycoplasma hyorhinis (ATCC 17981) was obtained from the American Type Culture Collection (ATCC, Manassas, Va.). The freeze-dried bacteria were reconstituted by adding 1 ml of DMEM. […] The co-culture of MCF-7 cells and M. hyorhinis was maintained under the same conditions as the uninfected MCF-7 cells. […] The cells were incubated for another 4 days, trypsinized and counted by a Coulter counter (Analis, Suarlée, Belgium).

MCF-7/HYOR cells [2] = test: Nucleotide incorporation assay, MCF-7/HYOR compared with MCF-7 cells; assay type: cell-based, human; details: 1 μCi radiolabeled compound; FIG. 4
Procedure: MCF-7 and MCF-7/HYOR cells were seeded at 10,000 cells/cm. After 48 hours, cells were treated with 1 μCi of ^3H-labeled nucleoside with or without 10 μM TPi. 16 h later, the medium was removed and the cells were washed twice with PBS. Next, the cells were trypsinized, transferred to Eppendorf tubes and centrifuged for 10 minutes at 1,400 rpm. The pellet was resuspended in 1 ml absolute ice-cold methanol and kept on ice for 20 minutes. After centrifugation for 20 minutes at 13,000 rpm the pellet was washed twice with methanol, resuspended in methanol and transferred to scintillation vials containing 9 ml of Ready safe liquid scintillation reagent (‘Hisafe 3’, Perkin Elmer, Waltham, Mass.). The radioactivity was measured by a Liquid scintillation analyzer (2300 TR, Packard, Canberra, Australia).

T1 sequence (P07650 whole entry): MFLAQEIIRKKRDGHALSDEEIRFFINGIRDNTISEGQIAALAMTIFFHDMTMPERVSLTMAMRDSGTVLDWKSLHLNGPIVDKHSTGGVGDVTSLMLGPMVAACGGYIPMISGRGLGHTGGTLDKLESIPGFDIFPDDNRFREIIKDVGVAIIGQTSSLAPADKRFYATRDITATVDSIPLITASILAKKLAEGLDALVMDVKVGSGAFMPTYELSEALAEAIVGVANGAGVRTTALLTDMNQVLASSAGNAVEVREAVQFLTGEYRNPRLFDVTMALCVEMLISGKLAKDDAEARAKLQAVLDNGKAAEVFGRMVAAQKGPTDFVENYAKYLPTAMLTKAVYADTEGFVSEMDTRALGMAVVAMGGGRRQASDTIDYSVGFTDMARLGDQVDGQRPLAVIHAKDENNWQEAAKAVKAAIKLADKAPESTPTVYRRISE

SMILES	Percent conversion of nucleoside to the free pyrimidine base, recombinant E. coli TP (E. coli TP; 2 hours) [%]	Percent conversion of nucleoside to the free pyrimidine base, recombinant E. coli TP (E. coli TP; 16 hours) [%]	IC50 (MCF-7/HYOR cells [1]; Homo sapiens, MCF7, read-out: IC50 MCF-7/HYOR +TPi (10 μM)) [nM]	IC50 (MCF-7/HYOR cells [1]; Homo sapiens, MCF7, read-out: IC50 MCF-7/HYOR As such) [nM]	IC50 (MCF-7/HYOR cells [1]; Homo sapiens, MCF7, plasmocin 25 μg/ml, 1 day pretreatment, read-out: IC50 MCF-7/HYOR +plasmocin (25 μg/ml) 1 day prior to addition of test compounds) [nM]	IC50 (MCF-7/HYOR cells [1]; Homo sapiens, MCF7, plasmocin 25 μg/ml, 3 days pretreatment, read-out: IC50 MCF-7/HYOR +plasmocin (25 μg/ml) 3 days prior to addition of test compounds) [nM]	Ratio (1)/(2) MCF-7/HYOR (MCF-7/HYOR cells [1])	Incorporation into nucleic acids, infected versus uninfected MCF-7 cells (in words) (MCF-7/HYOR cells [2])	IC50 (MCF-7/HYOR cells [1]; M. hyorhinis-infected MCF-7, no TPi, no plasmocin, read-out: IC50 MCF-7/HYOR As such) [nM]	IC50 (MCF-7/HYOR cells [1]; M. hyorhinis-infected MCF-7, with 10 μM TPi, read-out: IC50 MCF-7/HYOR +TPi (10 μM)) [nM]	IC50 (MCF-7/HYOR cells [1]; plasmocin 25 μg/ml, 1 day pretreatment, read-out: IC50 MCF-7/HYOR +plasmocin (25 μg/ml) 1 day prior to addition of test compounds) [nM]	IC50 (MCF-7/HYOR cells [1]; plasmocin 25 μg/ml, 3 days pretreatment, read-out: IC50 MCF-7/HYOR +plasmocin (25 μg/ml) 3 days prior to addition of test compounds) [nM]	Reduction of incorporation into nucleic acids in infected MCF-7/HYOR cells in comparison with uninfected MCF-7 cells (MCF-7/HYOR cells [2]) [fold]
O=c1[nH]c(=O)n([C@H]2C[C@H](O)[C@@H](CO)O2)cc1F [FdUrd, 5-fluoro-2′-deoxyuridine]	57	63	3 ± 1	420 ± 180	18 ± 2.2	3 ± 1	140	did not affect					
O=c1[nH]c(=O)n([C@H]2C[C@H](O)[C@@H](CO)O2)cc1C(F)(F)F [TFT, 5-trifluorothymidine]	48	85					33		6000 ± 3190	180 ± 70	450 ± 90	190 ± 60	40
